In PubChem BioAssay (NCI) one finds TGI data, which are given here for nine compounds.

As a reminder, the TGI is the concentration at which net growth stops. Low values mean greater sensitivity of the cells, high ones lower sensitivity of the cells.

Common to all, as to experiment: DTP human tumour cell line panel, 48 h
Assay [1] deals with CAKI-1 renal.
Assay [2] has as its system CCRF-CEM leukemia.
Assay [3] has as its system HCT-116 colon.
Assay [4] deals with HL-60(TB) leukemia.
Assay [5] has as its system HOP-62 NSCLC.
Assay [6] concerns KM12 colon.
Assay [7] has as its system MDA-MB-231 breast.
Assay [8] has as its system MDA-N.
Assay [9] has as its system OVCAR-3 ovarian.
Assay [10] relates to OVCAR-8 ovarian.
Assay [11] deals with SF-268 CNS.
Assay [12] concerns SK-MEL-2 melanoma.
The test system of assay [13] is SK-OV-3 ovarian.
The subject of assay [14] is U251 CNS.
The test system of assay [15] is UO-31 renal.
The test system of assay [16] is HOP-92 NSCLC.

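Interpolation was linear, between the two tested concentrations surrounding the appropriate level; five concentrations were tested over 48 hours in 96-well plates. At the TGI there is no net growth.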

As for `O=C1C=CC(=O)c2c(O)c(Nc3ccc(OC(F)(F)F)cc3)c(Cl)c(O)c21`, the TGI in [1] worked out at 2.96 µM; in assay [2], 4.32 µM; in [3], 0.455 µM; in assay [4] it was 3.24 µM; in assay [5], 2.57 µM; in [6], 2.95 µM. In addition, the concentration for total growth inhibition (TGI) in assay [7] worked out at 1.41 µM; in assay [8], 5.2 µM; in assay [9], 1.45 µM; in assay [10] it was 8.25 µM; in assay [11] it was 1.49 µM; in assay [12] it was 3.48 µM. Besides, the values for the TGI in assay [13], in assay [14] and in assay [15] were 3.19 µM, 2.05 µM and 5.58 µM, respectively.
Regarding `Oc1ccc2ccccc2c1N=Nc1ccc(N=Nc2ccccc2)cc1`, the TGI in [1] was above 100 µM; in assay [2], above 100 µM; in [3] it was above 100 µM; in [4], 12 µM; in assay [5], above 100 µM; in assay [6], above 100 µM. In addition, the concentration for total growth inhibition (TGI) in [7], in assay [8], in [9], in assay [10], in assay [11] and in assay [12] was above 100 µM each time. Moreover, the TGI in assay [13], in assay [14] and in [15] was above 100 µM each time.
For `CCCCCCCCCCCCCC/C(=C/OCC[N+](C)(C)C)OC(C)=O` (tested in a mixture with another compound), the TGI in [1] stood at 4.04 µM; in assay [2], 3.67 µM; in [3], 11.2 µM; in assay [4], 3.27 µM; in [5], 5.8 µM; in assay [16], 3.75 µM. In addition, the TGI in assay [7] was found to be 4.83 µM; in [8] it was 10 µM; in [9], 8.21 µM; in [10] it was 4.15 µM; in assay [11] it was 5.09 µM; in assay [13], 17.1 µM. The TGI was 2.71 µM in assay [14] and 30 µM in assay [15].
For `O=[N+]([O-])/C(Cl)=C(\Sc1ccccc1)C(Cl)=C(Cl)Cl`, the concentration for total growth inhibition (TGI) worked out at 3.88 µM in assay [1]; 0.667 µM in assay [2]; 0.278 µM in [3]; 0.515 µM in assay [4]; 3.68 µM in assay [5]; 3.4 µM in assay [16]. In addition, the concentration for total growth inhibition (TGI) in assay [6] was 3.21 µM; in assay [7], 0.628 µM; in assay [8], 0.761 µM; in assay [9], 2.85 µM; in assay [10] it was 0.351 µM; in assay [11], 3.05 µM. Moreover, the TGI was determined as 13.3 µM in [13], 3.69 µM in assay [14] and 0.654 µM in assay [15].
As to `C1CSCCSS[C@@H]2CCCCC2SC1` (some centres not stated), the concentration for total growth inhibition (TGI) in assay [2] was above 100 µM; in [3], above 100 µM; in [4] it was above 100 µM; in [5] it was above 100 µM; in assay [16], 97.8 µM; in assay [6], above 100 µM. Further, the total growth inhibition concentration (TGI) in assay [7], in assay [8], in assay [9], in assay [10], in assay [11] and in [13] was above 100 µM in each case. Besides, the TGI in [14] and in [15] was above 100 µM throughout.
For the compound `N#CC1(C#N)C(c2ccccc2)NC23CCCCC2C1(C#N)C(=O)N3` (configuration not stated), the TGI in [1], in assay [2], in [3], in [5], in [16] and in assay [6] was above 100 µM in each case. Further, the total growth inhibition concentration (TGI) in [7], in assay [8], in assay [9], in [10], in assay [11] and in assay [12] was above 100 µM throughout. Moreover, the TGI in [13], in assay [14] and in [15] was above 100 µM throughout.
Consider `COc1cc(C(CN)N(C)C)cc(OC)c1OC` (configuration not stated), for which the concentration for total growth inhibition (TGI) in assay [1], in [2], in [3], in [4], in assay [5] and in assay [16] was above 100 µM each time. For the same compound, the total growth inhibition concentration (TGI) in assay [6], in assay [7], in assay [8], in assay [9], in [10] and in [11] was above 100 µM in each case. The TGI in [13], in assay [14] and in assay [15] was above 100 µM each time.
Regarding `CCOC(=O)c1c(SCC#N)n(-c2ccccc2)c(=S)n(-c2ccccc2)c1=O`, the TGI in assay [1] is above 100 µM; in assay [2], above 100 µM; in assay [3], above 100 µM; in assay [4], above 100 µM; in assay [5], above 100 µM; in [16] it was 93.3 µM. In addition, the TGI in assay [6], in [8], in assay [9], in assay [10], in assay [11] and in [12] was above 100 µM throughout. Besides, the TGI in assay [13], in [14] and in [15] was above 100 µM each time.
On to `S=C(NNC1=NCCCCN1)Nc1ccccc1`, for which the TGI in [1] is above 100 µM; in [2], above 100 µM; in assay [3], 65.8 µM; in assay [4], above 100 µM; in assay [5] it was above 100 µM; in [6], above 100 µM. Also, the TGI in assay [7], in [8], in assay [9], in assay [10], in assay [11] and in assay [13] was above 100 µM in each case. In addition, the total growth inhibition concentration (TGI) in [14] and in assay [15] was above 100 µM each time.
